Measured values taken from patent US20260124223A1, “CANCER IMMUNOTHERAPIES” (Northwestern University, priority 2022, published 2026).

Experiments:
CT2A-bearing mice = assay: Survival of CT2A-bearing mice treated with aPD-1, liposomal DOX, US/MB; type: in vivo, mouse
Experimental: (§1) Ultrasound-mediated BBB opening in mouse models.
(§2) Cell lines and implantable syngeneic murine glioma models for survival and immunophenotyping studies. Murine GL261 cell line was acquired from the National Institutes of Health. CT2A cell line was acquired from Millipore. GL261 and CT2A were cultured in Dulbecco's modified Eagle's medium (Corning) supplemented with 10% FBS (Hyclone) and 1% penicillin/streptomycin (Corning) at 37° C. in incubators with humified atmosphere of 5% CO2 and 95% air.
(§3) After injection of glioma cells, the incision was closed using 9 mm stainless steel wound clips. On day 7 and 14 after IC implantation of glioma cell lines, mice were treated with liposomal DOX obtained from the pharmacy of Northwestern Memorial Hospital. On day 7, 10, 14, and 17 after IC injection of glioma cells, mice were treated with either […] of anti-mouse PD-1 (CD279) BE0146 (BioXcell) or rat IgG2a isotype control BE0089 (BioXcell).

GL261-bearing mice [1] = assay: Immunophenotyping of GL261-bearing mice treated with increasing doses of liposomal DOX with or without US/MB; type: in vivo, mouse; conditions: 1 and 2 mg/kg; 5 mg/kg without US/MB
Experimental: as §1, §3

GBM6 = assay: Flow cytometry of antigen-presenting molecules in PDX cell line GBM6; type: cell-based, human; conditions: 5 hours exposure, 72 hours drug-free, relative to no treatment
Experimental: (§4) Flow cytometry of PDX cell lines and HMC3 cells. PDX cell lines were kindly gifted. HMC3 cells were acquired from ATCC. GBM6, GBM63 and HMC3 cells were seeded on 6-well plates for treatment with increasing concentrations of DOX hydrochloride (D1515, Sigma Aldrich), IFN-γ (300-02, Peprotech) or 50 μM of TMZ (Accord). PDX and HMC3 cells were treated for 5 hours followed by 3 washes with PBS and cultured afterwards with Dulbecco's modified Eagle's medium (Corning) supplemented with 10% FBS (Hyclone) and 1% penicillin/streptomycin (Corning). 72 hours after treatment, PDX cells were harvested using Accutase cell detachment solution (Corning) and were stained initially with eBioscience Fixable Viability Dye eFluor 780 (Thermo Fisher) at 1:1000 dilution. Staining with HLA ABC AF-647 (311414) and HLA-DR BV421 (307636) was done for PDX cells. IFN-γ AF-700 (502520), HLA ABC FITC (311404), PD-L1 Pe-Cy7 (374506). All antibodies for this experiment were from Biolegend. Data was acquired using BD FACSymphony Flow Cytometer.

recurrent GBM patients = assay: Multiplex immunofluorescence of FcγRIIIA on TAMs, pre-DOX and during-DOX GBM samples; type: in vivo, human; conditions: DOX+aPD-1 with concomitant LIPU/MB, vs tissue before treatment, 4 patients
Source text: Multiplex immunofluorescence staining/cellular identification and phenotyping. The multiplex panel included the following unconjugated antibodies: GFAP (glioma cells), CD11c (antigen presenting cells), CD68 (pan monocyte/macrophage), CD163 (macrophage scavenger receptor), FcγRIIIA (Receptor binding the Fc region of IgG, CD16A). All antibodies were validated using conventional immunofluorescence (IF) staining in conjunction with the corresponding fluorophore and the spectral 4′,6-diamidino-2-pheynlindole (DAPI; ThermoFisher Scientific) counterstain. For optimal concentration and best signal/noise ratio all antibodies were tested at three different dilutions, starting with the manufacturer-recommended dilution (MRD), then MRD/2 and MRD/4. Secondary Alexa fluorophore 555 (ThermoFisher Scientific) and Alexa fluorophore 647 (ThermoFisher Scientific) were used at 1/200 and 1/400 dilutions respectively. […]
Slides are automatically scanned using the Lunaphore COMET™ with fluorescent high-power field scan (20× magnification microscope). […] The OME.TIFF images ware analyzed in Visiopharm software for immune populations' configuration and quantification.
All digitized images were analyzed using the Visiopharm software platform (Hørsholm, Denmark). […]

HMC3 cells = assay: Flow cytometry of IFNγ, HLA ABC and PD-L1 in HMC3 cells; type: cell-based, human; conditions: 5-hour pulse, 72 hours, specific DOX concentrations
Experimental: as §4

GL261 = assay: H-2Kb expression in GL261 cells by flow cytometry; type: cell-based, mouse; conditions: similar DOX concentration range, compared to no treatment
GL261 tumor-bearing mice = conditions: LIPU/MB+IC+DOX
Experimental: Cell culture. […] Both cell lines were cultured in Dulbecco's modified Eagle's medium (Gibco) supplemented with 10% fetal bovine serum (Gibco), and 1% penicillin/streptomycin (Gibco) in 5% CO2 incubators at 37° C. […] QPP4 cells were maintained in Dulbecco's modified Eagle's medium/F-12 (Gibco) supplemented with B-27 (Gibco), recombinant epidermal growth factor (EGF, 20 ng/ml, PeproTech), and recombinant basic fibroblast growth factor (bFGF, 20 ng/ml, PeproTech).
Animal Experiments. […] All murine cell lines used for this study were routinely tested for mycoplasma and were confirmed negative before intracranial orthotopic injection. To perform intracranial injection of syngeneic murine glioma cell lines, mice were anesthetized with ketamine/xylazine cocktail. Artificial tears were used to prevent eye drying and protect the eye. […] Mice were monitored daily and were euthanized when they approached the endpoint (weight loss is >20% of pre-treatment body weight or loss of mobility or severe neurological disabilities such as seizure, circular motion, etc.) as described in the IACUC protocol.
LIPU/MB. […] Sonications were performed for 120 seconds using a 25,000-cycle burst at a 1 Hz pulse repetition frequency and an acoustic pressure of 0.3 MPa as measured in water. After sonications, mice were moved to a clean cage, placed upon a heating pad, and monitored until they recovered from anesthesia.

GL261-bearing mice [2] = assay: Survival of GL261-bearing mice treated with liposomal DOX, aPD-1, US/MB; type: in vivo, mouse
Experimental: as §1, §2, §3

HMC3 = assay: FCGR3A / FcγRIIIA expression in HMC3 cells (qRT-PCR, flow cytometry); type: cell-based, human; conditions: DOX 5 hours, fresh media 72 hours
Experimental: as §4

COc1cccc2c1C(=O)c1c(O)c3c(c(O)c1C2=O)C[C@@](O)(C(=O)CO)C[C@@H]3O[C@H]1C[C@H](N)[C@H](O)[C@H](C)O1 [DOX, Doxorubicin]
survival in Cd8−/− and Cd8+/+ mice (CT2A-bearing mice; DOX plus anti-PD-1 antibody with US/MB, P=0.0452): survival benefit was only observed in mice that had intact immunity
long-term survival percentage (CT2A-bearing mice; anti-PD-1 antibody added to DOX plus US/MB): 80%
IFN-γ by glioma-associated myeloid cells (GL261-bearing mice [1]): no other doses of DOX nor the 5 mg/kg of dose delivered in the absence of US/MB elicited IFN-γ
DOX concentration range that upregulated HLA ABC and HLA DR expression (GBM6): 0.15 to 1.2 M
frequency of FcγRIIIA+ CD68+ and CD11c+ TAMs (recurrent GBM patients): increase in the frequency
expression of HLA ABC (HMC3 cells): promoted
expression of PD-L1 (HMC3 cells): promoted
production of IFNγ (HMC3 cells): promoted
H-2Kb expression (GL261): upregulated
long-term survivors (GL261 tumor-bearing mice): 16.7%
percentage of CD4 IFN-γ+ TNF-α+ T cells (GL261-bearing mice [2]; DOX alone vs control, P=0.04): higher percentage
long-term survivors (GL261-bearing mice [2]; GL261, anti-PD-1 antibody added to DOX plus US/MB, vs DOX plus US/MB): same percentage of long-term survivors
FCGR3A expression, times higher than in untreated microglia (HMC3): ~16 times
